We go through one compound from BindingDB's records for doi:10.1021/acs.jmedchem.5b01913 (Dalian University of Technology, 2016).

A short description of assay [1]: Inhibition of MDM2 in human HCT116 p53+/+ cells assessed as growth inhibition.
Assay [2] can be described thus: Inhibition of Bcl2 in human DMS53 cells assessed as growth inhibition.

A word on the IC50: it is the midpoint of a concentration-inhibition curve.

Consider `CC(C)Oc1ccc(C(=O)Nc2c(C(=O)O)nn(-c3ccc(Oc4ccccc4)cc3)c2-c2ccc(OC(C)C)cc2)cc1`, for which the IC50 in assay [1] and in assay [2] was 5 µM in each case.
